In patent US11442059B2, “Method for treating a chronic itch condition by administering small molecule MrgprX4 antagonists” (The Johns Hopkins University, priority 2017, dated 2022):

Tests used:
[1] = tested on: CD11c+MHC-IIhigh cells; assay: Calcium imaging of sorted mouse splenocytes; assay type: cell-based; conditions: WT CD11c+MHC-IIhigh splenocytes
Protocol: In initial experiments, HEK293 cells were plated on 100 μg/ml poly-D-lysine coated glass cover slips, and transiently transfected with vector containing Mrgprs gene, after 24-48 hours of culture, cells were loaded with Fura 2-acetomethoxy ester calcium indicator (0.5 μM, Molecular Probes) along with pluronic F-127 dispersing agent (0.1%, Molecular Probes) for 30 minutes in the dark at 37° C., then washed with calcium imaging buffer (CIB; NaCl 125 mM, KCl 3 mM, CaCl2 2.5 mM, MgCl2 0.6 mM, HEPES 10 mM, glucose 20 mM, NaHCO3 1.2 mM, sucrose 20 mM, brought to pH 7.4 with NaOH). Drugs were added to Fura 2-loaded cells and intracellular free calcium was measured using 340 nm and 380 nm excitation wavelengths with emission measured at 520 nm with a microscope based imaging system (Nikon Eclipse TE200). Changes in emission fluorescence ratios at 340/380 nm excitation were continuously monitored at 1 second intervals. Later, experiments were performed using Mrgpra1-GFP, Mrgprc11-GFP and MRGPRX4-GFP stable cell lines to confirm the findings obtained from the transiently expressing cells.
To sort different cell types of splenocytes based on CD11c and MHC-II expression, single cell suspension of mouse splenocytes was prepared as above described. Then. […]

[2] = target: MRGPRX4-GFP (Homo sapiens, UniProt Q96LA9); assay: Receptor internalization assay, MRGPRX4-GFP HEK293 cells; assay type: cell-based; conditions: 37° C.
Sequence of MRGPRX4-GFP (Q96LA9 whole entry, the tested form may be a part): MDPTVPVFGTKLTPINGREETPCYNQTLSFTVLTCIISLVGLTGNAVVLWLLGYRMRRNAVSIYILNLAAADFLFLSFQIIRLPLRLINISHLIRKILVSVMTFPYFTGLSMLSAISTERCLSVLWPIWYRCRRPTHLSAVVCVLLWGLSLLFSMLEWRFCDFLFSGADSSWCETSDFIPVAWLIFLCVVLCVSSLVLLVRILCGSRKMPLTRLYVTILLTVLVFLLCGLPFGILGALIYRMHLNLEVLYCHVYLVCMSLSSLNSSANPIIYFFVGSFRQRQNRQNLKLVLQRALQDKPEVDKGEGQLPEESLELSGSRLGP
Protocol: To label the drug with red-fluorescent dye, […] of LTG was dissolved in 50 μl dimethyformamide (DMF) first, and further diluted with 450 μl reaction buffer (0.1M sodium bicarbonate buffer, pH9.0) to obtain LTG at a concentration of 7.8 mM. Then, 50 μl of Texas-red-conjugated sulfonyl chloride (Thermo Fisher Scientific, T1905) dissolved in DMF at 10 mg ml−1 was slowly added into LTG solution. The reaction was incubated at 4° C. for 1 hour with continuous stirring. The mixture was then diluted into cell culture medium for further use. LTG labeled with Texas Red dye can create bright red-fluorescence with excitation/emission maxima ˜595/615 nm. HEK293 cells stably expressing Mrgpra1-GFP, Mrgprc11-GFP or MRGPRX4-GFP fusion protein were grown in DMEM with 10% FBS. After 4-6 hours of serum starvation, cells were treated with either medium, dye alone, unlabeled LTG or Texas-Red-labeled LTG at 37° C. for 15 or 60 min. Cells were washed with PBS and fixed with 4% paraformaldehyde in PBS. The subcellular localization of Mrgpr-GFP or drug was visualized under a confocal fluorescence microscope with a 400× magnification (Zeiss LSM 700).

[3] = target: MRGPRX4 (Homo sapiens, UniProt Q96LA9); assay: Cell membrane chromatography, MRGPRX4/CMC column; assay type: binding; parameters: expressed in transfected cells; whole cells or crude membrane fraction
Sequence of MRGPRX4 (Q96LA9 whole entry): as the sequence (Q96LA9 whole entry, the tested form may be a part) above
Protocol: CMC analysis was performed with a Shimadzu LC-2010A apparatus that consisted of pumps, degasser, autosampler, column oven, and a diode-array detector (Shimadzu, Kyoto, Japan). The data were acquired by the Lab-solution program (Shimadzu). The mobile phase consisted of phosphate-buffered saline (PBS; 5 mM, pH 7.4) and was delivered at a flow rate of 0.2 ml/min. The stock solutions (100 μM) of lamotrigine were prepared by separately dissolving the standard drugs in methanol. Standard solutions at various concentrations were prepared by diluting the stock solutions with the mobile phase. The MRGPRX2/CMC and MRGPRX4/CMC column was prepared as follows. Briefly, MRGPRX4-expressed HEK293 cells (1×10^8) were harvested and centrifuged (1000 g, 10 min, at 4° C.). Cells were washed with physiological saline (pH=7.4) by centrifugation at 1000 g for 10 min at 4° C. […] KD value of lamotrigine was determined by means of the MRGPRX4/CMC system as follows. […] This mobile phase with different concentrations of each compound was separately pumped through the MRGPRX4/CMC column at a flow rate of 0.2 ml min^−1 under the gradient program and the breakthrough curves of the compound with different concentrations were recorded. […] Moreover, KD could be determined by calculating the ratio of the intercept to the slope, and [R]s was obtained from the inverse of the intercept.

In the case of `Nc1nnc(-c2cccc(Cl)c2Cl)c(N)n1` [LTG, Lamotrigine], the “cells responding (Ca2+ imaging)” value [1] is reported as “approximately 5%”, the “internalization of MRGPRX4-GFP” value [2] is reported as “can induce the internalization” and the “Retention time on MRGPRX4/CMC column” value ([3]; affinity chromatography elution profile) is reported as 16.7 min. It also gave a Kd ([3]; regression 1/[LR]s versus 1/[L]m, n=5, read-out: KD (MRGPRX4/CMC breakthrough curves)) of 417 nM.
